From article PMC8617681 (Pharmaceuticals, 2021)
Like-named read-outs stand apart in the source and are kept apart here.

What was measured:
[1] = 4 h main pharmacokinetic experiment in wild-type, Abcb1a/1b-/-, Abcg2-/- and Abcb1a/1b;Abcg2-/- mice; format: in vivo; conditions: 10 mg/kg oral, 4 h main experiment; for Cmax / Tmax / concentration at 4 h / AUC(0-t): mouse; for Cmax / Tmax / AUC(0-t): plasma; for concentration at 4 h / AUC(0-t): male, po, 10 mg/kg; for AUC(0-t): read-out: AUC0–4h
Method: Mice were housed and handled according to institutional guidelines complying with Dutch and EU legislation. All experimental animal protocols were evaluated and approved by the institutional animal care and use committee. Wild-type, Abcb1a/1b^-/-, Abcg2^-/-, Abcb1a/1b; Abcg2^-/-, Slco1a/1b^-/- male mice, and Cyp3a^-/- and Cyp3aXAV female mice, all of a >99% FVB genetic background, were used between 9 and 16 weeks of age. […] All experimental animal protocols (WP9450, 9669, 9760), including power calculations, designed under the nationally approved DEC/CCD project AVD301002016595, were evaluated and approved by the institutional animal care and use committee of The Netherlands Cancer Institute. […]
(§1) For the 4 h transporter experiments, tail-vein blood samples were collected at 0.125, 0.25, 0.5, 1, and 2 h time points after oral administration, respectively. For the CYP3A 8 h experiments, tail-vein blood sampling was performed at 0.25, 0.5, 1, 2, and 4 h, respectively. While for elacridar inhibition experiments, tail-vein blood samples were collected at 0.125, 0.25, 0.5, and 1 h time points after oral administration, respectively. Blood sample collection was performed using microvettes containing dipotassium EDTA. At the last time point in each experiment (2, 4 or 8 h), mice were anesthetized with 5% isoflurane and blood was collected by cardiac puncture. Blood samples were collected in Eppendorf tubes containing heparin as an anticoagulant. The mice were then sacrificed by cervical dislocation and brain, liver, kidney, lung, small intestine and testis were rapidly removed. Plasma was isolated from the blood by centrifugation at 9000× g for 6 min at 4 °C, and the plasma fraction was collected and stored at −30 °C until analysis. Organs were homogenized with 4% (w/v) bovine serum albumin and stored at −30 °C until analysis.
(§2) Pharmacokinetic parameters were calculated by noncompartmental methods using the PK solver software. The area under the plasma concentration–time curve (AUC) was calculated using the trapezoidal rule, without extrapolating to infinity. The peak plasma concentration (Cmax) and the time of maximum plasma concentration (Tmax) were estimated from the original (individual mouse) data. One-way analysis of variance (ANOVA) was used when multiple groups were compared and the Tukey post hoc correction was used to accommodate multiple testing. The two-sided unpaired Student’s t-test was used when treatments or differences between two specific groups were compared using the software GraphPad Prism 8 (GraphPad Software Inc., La Jolla, CA, USA). All the data were log-transformed before statistical tests were applied. Differences were considered statistically significant when p < 0.05. All data are presented as geometric mean ± SD.

[2] = 2 h pharmacokinetic study with or without elacridar in wild-type and Abcb1a/1b;Abcg2-/- mice; format: in vivo; conditions: for concentration at 2 h / Cmax / Tmax / AUC(0-t): mouse, 10 mg/kg oral, 2 h; for Cmax / Tmax / AUC(0-t): male, plasma, po, 10 mg/kg; for AUC(0-t): read-out: AUC0–2h
Method: Mice were housed and handled according to institutional guidelines complying with Dutch and EU legislation. All experimental animal protocols were evaluated and approved by the institutional animal care and use committee. Wild-type, Abcb1a/1b^-/-, Abcg2^-/-, Abcb1a/1b; Abcg2^-/-, Slco1a/1b^-/- male mice, and Cyp3a^-/- and Cyp3aXAV female mice, all of a >99% FVB genetic background, were used between 9 and 16 weeks of age. […] All experimental animal protocols (WP9450, 9669, 9760), including power calculations, designed under the nationally approved DEC/CCD project AVD301002016595, were evaluated and approved by the institutional animal care and use committee of The Netherlands Cancer Institute.
Elacridar hydrochloride was dissolved in DMSO (53 mg/mL) in order to obtain 50 mg elacridar base per mL DMSO. The stock solution was further diluted with a mixture of polysorbate 20, 100% ethanol and 5% glucose water to yield a concentration of 5 mg/mL elacridar [DMSO: polysorbate 20: 100% ethanol: 5% glucose water = 10:15:15:60, (v/v/v/v)]. All dosing solutions were prepared freshly on the day of the experiment.
as §1, §2

CNS metastasis = conditions: 11 patients with measurable CNS lesions, cited from earlier work
[3] = FVB (Abcb1a/1b-/-), male Abcb1a/1b-/- mice
[4] = FVB (Abcb1a/1b;Abcg2-/-), male Abcb1a/1b;Abcg2-/- mice
[5] = FVB (Abcg2-/-), male Abcg2-/- mice
[6] = FVB (wild-type), male wild-type mice
[7] = Abcb1a/1b;Abcg2-/- (>99% FVB genetic background), male Abcb1a/1b;Abcg2-/- mice, elacridar 50 mg/kg oral 2 h prior
[8] = Abcb1a/1b;Abcg2-/- (>99% FVB genetic background), male Abcb1a/1b;Abcg2-/- mice, vehicle
[9] = wild-type (>99% FVB genetic background), male wild-type mice, elacridar 50 mg/kg oral 2 h prior
[10] = wild-type (>99% FVB genetic background), male wild-type mice, vehicle

Structure (SMILES): COc1ccc(CN2C3CC2CN(c2ccc(-c4cc(OCC(C)(C)O)cn5ncc(C#N)c45)cn2)C3)cn1 [selpercatinib]
- Cmax [1, 3]: 10300 ng/mL
- Tmax [1, 3]: 1.8 ± 1.3 h
- Cmax [1, 4]: 11000 ng/mL
- Tmax [1, 4]: 1.5 ± 1.3 h
- Cmax [1, 5]: 11400 ng/mL
- Tmax [1, 5]: 1.4 ± 0.74 h
- Cmax [1, 6]: 6910 ± 761 ng/mL
- Tmax [1, 6]: 1.6 ± 1.4 h
- SIC percentage of dose ([1]; male Abcb1a/1b-/- mice): 1.1 ± 0.3%
- SIC percentage of dose ([1]; male Abcb1a/1b;Abcg2-/- mice): 0.69 ± 0.52 %
- SIC percentage of dose ([1]; male Abcg2-/- mice): 1.6 ± 0.7 %
- SIC percentage of dose ([1]; male wild-type mice): 2.3 ± 0.9%
- concentration at 4 h ([1]; FVB (Abcb1a/1b-/-), brain, male Abcb1a/1b-/- mice, read-out: Cbrain): 2000 ± 233 ng/g
- concentration at 4 h ([1]; FVB (Abcb1a/1b;Abcg2-/-), brain, male Abcb1a/1b;Abcg2-/- mice, read-out: Cbrain): 4260 ± 853 ng/g
- AUC(0-t) [1, 4]: 39000 ng·h/mL
- concentration at 4 h ([1]; FVB (Abcg2-/-), brain, male Abcg2-/- mice, read-out: Cbrain): 418 ± 102 ng/g
- concentration at 4 h ([1]; FVB (wild-type), brain, male wild-type mice, read-out: Cbrain): 420 ± 66 ng/g
- concentration at 4 h ([1]; FVB, liver, male Abcb1a/1b-/- mice, read-out: CLiver): 34000 ng/g
- concentration at 4 h ([1]; FVB, liver, male Abcb1a/1b;Abcg2-/- mice, read-out: CLiver): 23200 ng/g
- concentration at 4 h ([1]; FVB, liver, male Abcg2-/- mice, read-out: CLiver): 19300 ng/g
- concentration at 4 h ([1]; FVB, liver, male wild-type mice, read-out: CLiver): 25700 ng/g
- AUC(0-t) ([1]; FVB, male Abcb1a/1b-/- mice): 37000 ng·h/mL
- AUC(0-t) ([1]; FVB, male Abcg2-/- mice): 39100 ng·h/mL
- AUC(0-t) ([1]; FVB, male wild-type mice): 23700 ng·h/mL
- concentration at 4 h ([1]; FVB, small intestine contents, male Abcb1a/1b-/- mice, read-out: CSIC (small intestine contents concentration)): 69400 ng/g
- concentration at 4 h ([1]; FVB, small intestine contents, male Abcb1a/1b;Abcg2-/- mice, read-out: CSIC (small intestine contents concentration)): 27400 ng/g
- concentration at 4 h ([1]; FVB, small intestine contents, male Abcg2-/- mice, read-out: CSIC (small intestine contents concentration)): 91700 ng/g
- concentration at 4 h ([1]; FVB, small intestine contents, male wild-type mice, read-out: CSIC (small intestine contents concentration)): 98100 ng/g
- concentration at 4 h ([1]; FVB, small intestine, male Abcb1a/1b-/- mice, read-out: CSI (small intestine tissue concentration)): 17000 ng/g
- concentration at 4 h ([1]; FVB, small intestine, male Abcb1a/1b;Abcg2-/- mice, read-out: CSI (small intestine tissue concentration)): 11600 ng/g
- concentration at 4 h ([1]; FVB, small intestine, male Abcg2-/- mice, read-out: CSI (small intestine tissue concentration)): 13000 ng/g
- concentration at 4 h ([1]; FVB, small intestine, male wild-type mice, read-out: CSI (small intestine tissue concentration)): 21600 ng/g
- concentration at 4 h ([1]; FVB, testis, male Abcb1a/1b-/- mice, read-out: Ctestis): 3480 ± 634 ng/g
- concentration at 4 h ([1]; FVB, testis, male Abcb1a/1b;Abcg2-/- mice, read-out: Ctestis): 8330 ± 935 ng/g
- concentration at 4 h ([1]; FVB, testis, male Abcg2-/- mice, read-out: Ctestis): 1050 ± 192 ng/g
- concentration at 4 h ([1]; FVB, testis, male wild-type mice, read-out: Ctestis): 811 ± 148 ng/g
- concentration at 2 h ([2]; Abcb1a/1b;Abcg2-/- (>99% FVB genetic background), brain, male Abcb1a/1b;Abcg2-/- mice, elacridar 50 mg/kg oral 2 h prior, read-out: Cbrain): 4710 ± 484 ng/g
- concentration at 2 h ([2]; Abcb1a/1b;Abcg2-/- (>99% FVB genetic background), brain, male Abcb1a/1b;Abcg2-/- mice, vehicle, read-out: Cbrain): 4730 ± 638 ng/g
- concentration at 2 h ([2]; FVB (Abcb1a/1b;Abcg2-/-), liver, with elacridar 50 mg/kg oral, 2 h before selpercatinib, male Abcb1a/1b;Abcg2-/- mice, elacridar 50 mg/kg oral 2 h prior, read-out: CLiver): 23600 ng/g
- concentration at 2 h ([2]; FVB (Abcb1a/1b;Abcg2-/-), liver, male Abcb1a/1b;Abcg2-/- mice, vehicle, read-out: CLiver): 21400 ng/g
- concentration at 2 h ([2]; FVB (wild-type), liver, with elacridar 50 mg/kg oral, 2 h before selpercatinib, male wild-type mice, elacridar 50 mg/kg oral 2 h prior, read-out: CLiver): 20000 ng/g
- concentration at 2 h ([2]; FVB (wild-type), liver, male wild-type mice, vehicle, read-out: CLiver): 18100 ng/g
- concentration at 2 h ([2]; FVB, small intestine tissue together with contents, male Abcb1a/1b;Abcg2-/- mice, elacridar 50 mg/kg oral 2 h prior, read-out: CSI + SIC (small intestine tissue together with contents concentration)): 21200 ng/g
- concentration at 2 h ([2]; FVB, small intestine tissue together with contents, male Abcb1a/1b;Abcg2-/- mice, vehicle, read-out: CSI + SIC (small intestine tissue together with contents concentration)): 18800 ng/g
- concentration at 2 h ([2]; FVB, small intestine tissue together with contents, male wild-type mice, elacridar 50 mg/kg oral 2 h prior, read-out: CSI + SIC (small intestine tissue together with contents concentration)): 26600 ng/g
- concentration at 2 h ([2]; FVB, small intestine tissue together with contents, male wild-type mice, vehicle, read-out: CSI + SIC (small intestine tissue together with contents concentration)): 37600 ng/g
- concentration at 2 h ([2]; FVB, testis, male Abcb1a/1b;Abcg2-/- mice, elacridar 50 mg/kg oral 2 h prior, read-out: Ctestis): 9200 ± 856 ng/g
- concentration at 2 h ([2]; FVB, testis, male Abcb1a/1b;Abcg2-/- mice, vehicle, read-out: Ctestis): 7020 ± 664 ng/g
- concentration at 2 h ([2]; FVB, testis, male wild-type mice, elacridar 50 mg/kg oral 2 h prior, read-out: Ctestis): 5710 ± 1740 ng/g
- concentration at 2 h ([2]; FVB, testis, male wild-type mice, vehicle, read-out: Ctestis): 788 ± 159 ng/g
- Cmax [2, 7]: 9620 ± 776 ng/mL
- Tmax [2, 7]: 0.79 ± 0.33 h
- AUC(0-t) [2, 7]: 17300 ng·h/mL
- Cmax [2, 8]: 8860 ± 792 ng/mL
- Tmax [2, 8]: 1 h
- AUC(0-t) [2, 8]: 15100 ng·h/mL
- AUC(0-t) ([2]; FVB, wild-type, male wild-type mice, vehicle): 14100 ng·h/mL
- Cmax [2, 9]: 7470 ± 1850 ng/mL
- Tmax [2, 9]: 0.5 ± 0.27 h
- AUC(0-t) [2, 9]: 12900 ng·h/mL
- Cmax [2, 10]: 8740 ± 1560 ng/mL
- Tmax [2, 10]: 0.75 ± 0.27 h
- concentration at 2 h ([2]; wild-type (>99% FVB genetic background), brain, male wild-type mice, elacridar 50 mg/kg oral 2 h prior, read-out: Cbrain): 2760 ± 851 ng/g
- concentration at 2 h ([2]; wild-type (>99% FVB genetic background), brain, male wild-type mice, vehicle, read-out: Cbrain): 210 ± 40 ng/g
- abnormal external behavior ([2]; wild-type mice, oral co-administration of elacridar): without any abnormal external behavior
- percentage with an objective intracranial response (CNS metastasis; independent review): 91%
- complete responses (intracranial) (CNS metastasis): 27%
- partial responses (intracranial) (CNS metastasis): 64%
